# Columns and labels:
# [1] = target: T1, GSK-3β (Homo sapiens, UniProt P49841); test: in vitro kinase assay with recombinant GSK-3β; tau or immunoprecipitated N protein as substrate, gel mobility shift; assay type: biochemical
# T1 construct: gene GSK3B; human recombinant GSK-3β
# [2] = target: T1, GSK-3β; test: in vitro kinase assay with recombinant GSK-3β and immunoprecipitated N protein as substrate, single concentration ([…]); assay type: biochemical
# T1 sequence (P49841 whole entry): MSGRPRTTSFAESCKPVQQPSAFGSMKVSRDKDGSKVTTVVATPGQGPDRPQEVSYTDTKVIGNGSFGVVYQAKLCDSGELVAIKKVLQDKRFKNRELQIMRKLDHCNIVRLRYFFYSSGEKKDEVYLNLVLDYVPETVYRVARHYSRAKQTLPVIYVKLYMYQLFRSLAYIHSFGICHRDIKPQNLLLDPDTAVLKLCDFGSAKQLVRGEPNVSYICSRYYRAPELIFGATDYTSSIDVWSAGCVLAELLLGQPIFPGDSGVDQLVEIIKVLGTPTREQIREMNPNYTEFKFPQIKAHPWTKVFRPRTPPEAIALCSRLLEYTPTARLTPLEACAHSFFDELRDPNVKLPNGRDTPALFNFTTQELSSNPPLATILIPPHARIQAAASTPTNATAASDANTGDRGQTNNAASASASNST
Structure (SMILES),in vitro kinase assay with recombinant GSK-3β; tau or immunoprecipitated N prote [1] [µM],in vitro kinase assay with recombinant GSK-3β and immunoprecipitated N protein a [2] [µM]
Cn1cc(C2=C(c3cn(C4CCN(Cc5ccccn5)CC4)c4ccccc34)C(=O)NC2=O)c2ccccc21 [Enzastaurin],0.5,
Cc1c[nH]c(-c2cnc(NCCNc3ccc(C#N)cn3)nc2-c2ccc(Cl)cc2Cl)n1 [CHIR99021],,2

# Reference: article PMC8594528 (Proceedings of the National Academy of Sciences of the …, 2021)
